# Results: publication PMC12476894, “Identification of α‑Azacyclic Acetamide-Based Inhibitors of P. falciparum Na^+ Pump (PfATP4) with Fast-Killing Asexual Blood-Stage Antimalarial Activity by Phenotypic Screening” (ACS Infectious Diseases, 2025)
# Where two headings read alike, the source gives them in different places.
# Tests used:
# Dd2^P412L (PfATP4^P412L) = experiment: Drug susceptibility assay for cross-resistance profiling (Fidock Lab), P412L; format: cell-based, Plasmodium falciparum; conditions: Table 3 data set; for EC50: Plasmodium falciparum, DD2, 15-selected line
# [1] = system: isolated Pf3D7 trophozoites, [Na+]cyt; experiment: Measurement of P. falciparum cytosolic Na+ concentration (SBFI); format: cell-based, Plasmodium falciparum; conditions: 1 μM
# Experimental: Measurements were carried out in 96 well plates (excitation wavelengths: 340 and 380 nm; emission wavelength: 515 nm), as described previously. Fluorescence ratio values (340 nm/380 nm) were converted to [Na^+]cyt using a calibration procedure in which parasites were suspended in solutions of varying [Na^+] containing ionophores.
# [2] = system: P. falciparum 3D7 parasites (Pf3D7); experiment: 72 h SYBR Green growth inhibition, ABS P. falciparum 3D7 (Phillips Lab); format: cell-based, Plasmodium falciparum; conditions: Plasmodium falciparum, 3D7; 72 h SYBR Green assay; mean ± SEM (n)
# [3] = system: Dd2 PfATP4^P412L mutant clones; experiment: 72 h SYBR Green growth inhibition, 2-selected Dd2 clones with PfATP4 P412L (Phillips Lab); format: cell-based, Plasmodium falciparum; conditions: for EC50: Plasmodium falciparum
# Experimental: (§1) To confirm the MOA for the α-azacyclic acetamides against P. falciparum and to obtain potential information about whether or not they bind PfATP4 at an overlapping site with that of KAE609, we undertook resistance selections using PfDd2 parasites using the published cycling drug selection method. , α-Azacyclic acetamides 2 and 3 were chosen as representative examples of the pyrrole- and indole-based series, respectively. […] Additional cycles were performed at 20 × EC50, until resistant parasites were detected based on a fold change in EC50 compared to the parental clonal Dd2 line (Table S3). Resistant parasites were detected in the 2-selections in all 4 flasks after 4 pulses and for 3-selections in 3 flasks after 5 pulses. Clonal lines were generated from each flask, and one clone per flask was selected for WGS and EC50 determination (Tables S4 and S5). WGS analysis identified two single point mutations in PfATP4 that were not present in the original clonal Dd2 parasite line (Tables and S4). P412L was found in three of four flasks containing 2-selected resistance clones, and F917L was identified in all three flasks containing 3-selected clones and in the fourth flask containing 2-selected clones (Table S4). PfATP4 mutations identified by the WGS analysis in parasite lines were verified by PCR of the pfatp4 gene, followed by Sanger sequencing (Figures S5, S6 and Table S6). An additional protein coding gene (ribosomal protein S8e) was mutated in the 2-selections. However, this mutation was identified in only one of four sequenced clones and is therefore unlikely to be related to resistance to 2 (Figure S7). All three resistant clones derived from the 3-selections harbored an identical mutation in a gene (pfcpu) encoding a conserved protein of unknown function, which was absent in the parental line (Figure S8).
# (§2) ABS P. falciparum 3D7, Dd2 or PfNF54^luc parasites (BEI resources) were cultured in RPMI 1640 medium (Millipore Sigma), supplemented with 25 mM HEPES, 0.5% Albumax-I (Thermo Scientific), 23 mM sodium bicarbonate, 92 μM hypoxanthine, and 10 μg/mL gentamicin sulfate at 37 °C, 5% CO2, using deidentified O^+ red blood cells (BioIVT) as previously described. − Growth inhibition assays were conducted in 96 well plate format using the SYBR Green or luciferase reporter assay depending on the strain with modifications as described , (see Supporting Information for a detailed description). Details for the luciferase reporter assay are described below under the BRRoK assay section.
# (§3) EC50 and CC50 values were determined by nonlinear regression performed in GraphPad Prism Version 10. Unless otherwise specified, data were fitted to the log(inhibitor) vs response–variable slope with four parameters equation. […] For mutant cell lines and compound combinations where bottom plateau of zero growth was not reached, the bottom of the curve was defined at 0% based on background values obtained for parental Dd2 from the same study.
# (§4) Resistant Dd2 parasites were selected using a high-pressure intermittent selection protocol using a previously described method. Selections were set up using 4 flasks per compound starting with approximately 3 × 10^9 parasites per flask (80 mL per flask, 4% hematocrit, 3% parasitemia at the beginning of each pulse, mostly ring-stage parasites via previous sorbitol synchronization. Pulse 1 and 2 (48 h) were conducted at 10xEC50, and subsequent pulses were conducted at 20xEC50. Parasites cleared within 48 h under these conditions. 3-Selections used a total of 4 pulses, while 2-selections required 5 pulses before resistant parasites emerged (Table S3). Culture media was replenished daily for a week after each pulse, then every 2 days with weekly replenishment of blood. Cultures were monitored by microscopy until recrudescence. Clonal parasites were obtained from each flask by limiting dilution and maintained in drug free RPMI-1640 media prior to being analyzed for EC50 shifts. […]
# [4] = system: Pf3D7 trophozoites, pHcyt (PfATP4 and other plasma membrane transporters); experiment: P. falciparum pH fingerprint assay; conditions: 5 μM, compared with KAE609 50 nM
# [5] = system: Dd2 PfATP4^F917L mutant clones; experiment: 72 h SYBR Green growth inhibition, 2- or 3-selected Dd2 clones with PfATP4 F917L (Phillips Lab); format: cell-based, Plasmodium falciparum; conditions: for EC50: Plasmodium falciparum
# Experimental: as §1, §2, §3, §4
# Dd2-B2 (PfATP4^WT) = experiment: Drug susceptibility assay for cross-resistance profiling (Fidock Lab), parental line; format: cell-based, Plasmodium falciparum; conditions: Plasmodium falciparum, DD2, 72 h, read-out: EC50, Dd2-B2
# physchem = conditions: kinetic from dmso stock
# [6] = DD2, read-out: EC50, 2-resistant Flask 2 Clone F9
# [7] = DD2, read-out: EC50, 2-resistant Flask 3 Clone F5
# [8] = DD2, read-out: EC50, 2-resistant Flask 4 Clone E10
# [9] = DD2, read-out: EC50, 2-selected flask #3 clone F5
# [10] = DD2, read-out: EC50, 2-resistant Flask 1 Clone B6
# [11] = DD2, read-out: EC50, 3-resistant Flask 2 Clone D10
# [12] = DD2, read-out: EC50, 3-resistant Flask 3 Clone D8
# [13] = DD2, read-out: EC50, 3-resistant Flask 4 Clone B3
# [14] = DD2, read-out: EC50, 3-selected flask #3 clone D8
SMILES,EC50 (Dd2^P412L (PfATP4^P412L)) [µM],"EC50 fold-change vs Dd2-B2, Dd2^P412L (Dd2^P412L (PfATP4^P412L)) [fold]",increase in [Na+]cyt (in words) [1],EC50 [2] [µM],"EC50 [3, 6] [µM]","EC50 [3, 7] [µM]","EC50 [3, 8] [µM]","EC50 [3, 9] [µM]","Fold EC50 change compared to WT Dd2, 2-selected flask #3 clone F5 [3] [fold]","pH fingerprint, +Glucose + CMA condition (in words) [4]","EC50 [5, 10] [µM]","EC50 [5, 11] [µM]","EC50 [5, 12] [µM]","EC50 [5, 13] [µM]","EC50 [5, 14] [µM]","Fold EC50 change compared to WT Dd2, 3-selected flask #3 clone D8 [5] [fold]",EC50 (Dd2-B2 (PfATP4^WT)) [µM],"solubility (physchem; pH 2, simulated gastric fluid) [µM]","solubility (physchem; pH 6.5, aqueous buffer) [µM]"
"Cc1ccnc(NC(=O)Cn2cccc2-c2nc(-c3ccccc3)cs2)c1 [compound 2, N-(4-methylpyridin-2-yl)-2-(2-(4-phenylthiazol-2-yl)-1H-pyrrol-1-yl)acetamide]",34 ± 1.3,89,reduced response,0.83 ± 0.071,> 10,> 10,> 10,29 ± 6.1,35,maximal/near-maximal inhibition of PfATP4,9.6 ± 2,> 10,> 10,> 10,14 ± 0.78,17,0.38 ± 0.031,99,3.2
"Cc1nn(CCNC(=O)Cn2c(C)c(C#N)c3ccccc32)c(C)c1Cl [compound 3, N-(2-(4-chloro-3,5-dimethyl-1H-pyrazol-1-yl)ethyl)-2-(3-cyano-2-methyl-1H-indol-1-yl)acetamide]",4.1 ± 0.45,7.6,reduced response,1.1 ± 0.071,> 10,> 10,> 10,11 ± 1.8,10,submaximal inhibition,> 10,> 10,> 10,> 10,28 ± 1.6,25,0.54 ± 0.054,25,25
